In this experiment the test system is anemic rats. Description: hemoglobin-repletion test in anemic rats (relative bioavailability of iron). The class given is in vivo, Sprague-Dawley rats. The following applies: high iron diet, 20 mg/kg of diet, after 14 days of feeding.

One substance from US6830761B1, “Composition comprising micro-encapsulated iron” (Ped-Med Ltd., priority 1998, dated 2004) can be followed below.

Experimental: Male weanling Sprague-Dawley rats housed individually in stainless steel cages were fed a low-iron diet and de-ionized distilled water ad lib for 24 days. The low-iron diet contained no more than about 3 mg of iron per kg of diet. Following the 24 day depletion period, approximately 200 μl of blood was drawn from the tail vein of each rat for hemoglobin analysis. Anemic rats having hemoglobin values between 30 and 60 g/L were used in the study. The rats were housed individually in cages in a randomized block design.

With ferrous sulfate, the mean hemoglobin response was 31 g/L.
